The values below come from US20120190707A1, “SELECTIVE INHIBITORS OF AKT AND METHODS OF USING SAME” (priority 2008, published 2012).

The structures appear in SMILES notation. Several values for one entry are separate records, joined by “and”; a condition that tells them apart may be missing. Equal entries are not always repeated. Entries after “also recorded” stand apart in the source; their conditions may differ. Where two headings read alike, the source gives them in different places.

In experiment [1] the target is T1, Akt1 (Homo sapiens, UniProt P31749). In words: Akt1 inhibition, Z'-LYTE kit fluorescent-enzymatic assay. In kind it is biochemical. As to conditions: for Ki: 10 μM compound 1, 20 μM compound 2, 50 μM compound 3, increasing ATP, Lineweaver-Burk. The protocol: Here the top 4000 compounds out of 50000 docked compounds were selected using FlexX and Drugscore (BioSolvIT). The top 4000 docked structures were further evaluated and ranked according to Goldscore and Chemscore functions (CSCORE). A list of common 200 compounds was then selected among ranked top 700 compounds according to both scoring functions (FIG. 1B). […] The remaining 100 compounds were experimentally tested up to 30 μM against Akt1. The inhibitory activity was evaluated for the selected compounds by using Z'-LYTE™ kit assay provided by Invitrogen Corporation (19). […] Corning® 384-well low volume plates (20 μl) were used. The fluorescent-enzymatic assay has been performed following the protocol provided by Invitrogen Corporation, using a fluorescent plate reader (Victor2, Perkin-Elmer). […] C) Lineweaver-Burk Km and Km(app) evaluation for Akt1. Each measurement was performed in triplicate. […] The Ki and the Km(app) were calculated at fixed inhibitor concentrations, as reported in the text. All constant values were definitely evaluated by fitting the data to the Lineweaver-Burk plot; D) Akt1 inhibition assay using GSK-3 as a substrate. Comparison of compounds 1 and 2 (Table 1) with H89 at 10 μM. E) Dose response for compound 1. Akt (10 ng of recombinant enzyme) in 25 μl 1× kinase buffer (25 mM Tris, pH 7.5; 5 mM n-glycerol phosphate; 2 mM dithiothreitol; 0.1 mM Na3VO4; and 10 mM MgCl2), was mixed with 2.5 μl DMSO (1% stock) or MPA-D (100 μM in 1% DMSO). Samples were incubated on ice for 1.5 hours at which time 1 μg of GSK-3 fusion protein (Cell Signaling), which served as the substrate, was added followed by ATP (200 μM) to each reaction mixture. After the suspensions were incubated at 30° C. for 20 min, the reaction was terminated by the addition of 3×SDS sample buffer (187.5 mM Tris-HCl, pH 6.8; 6% SDS; 30% glycerol; 150 mM dithiothreitol; and 0.03% bromophenol blue). The samples were boiled for 5 min, and the proteins were separated on a 12% SDS polyacrylamide gel and subsequently transferred to a nitrocellulose membrane. Membranes were incubated with rabbit polyclonal anti-phospho-GSK-3α/β (Ser21/9) (Cell Signaling).
T1 sequence (P31749 whole entry): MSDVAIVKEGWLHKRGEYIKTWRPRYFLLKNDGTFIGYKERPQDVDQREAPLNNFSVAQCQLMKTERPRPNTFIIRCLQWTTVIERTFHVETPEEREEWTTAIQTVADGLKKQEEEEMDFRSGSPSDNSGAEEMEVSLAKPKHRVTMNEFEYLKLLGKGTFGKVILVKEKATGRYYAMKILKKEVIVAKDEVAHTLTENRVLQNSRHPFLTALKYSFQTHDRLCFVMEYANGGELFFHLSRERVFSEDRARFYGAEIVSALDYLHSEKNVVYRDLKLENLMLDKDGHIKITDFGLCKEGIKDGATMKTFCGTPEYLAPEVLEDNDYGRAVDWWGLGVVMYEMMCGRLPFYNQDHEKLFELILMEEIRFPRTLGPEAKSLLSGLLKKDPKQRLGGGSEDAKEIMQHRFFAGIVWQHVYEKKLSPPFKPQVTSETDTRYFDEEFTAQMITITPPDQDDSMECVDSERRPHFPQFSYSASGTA
For these purposes, we initially determined the Km and the Vmax of the enzymatic reaction involving the peptide provided by the Z'-LYTE™ kit assay and Akt1 by varying the concentration of ATP. The above parameters appeared to be 7.9 μM and 0.0205 μmol min^−1 mg^−1, respectively. […] Because all our inhibitors affected the Km rather than the Vmax of the reaction (FIG. 2C), they can be truly considered ATP-competitive inhibitors of Akt1.

In experiment [2] the target is T1, Akt1. Briefly: Akt1 inhibition assay using GSK-3 as a substrate (immuno-blotting with anti-phospho-GSK-3α/β). The class given is biochemical. The protocol: Here the top 4000 compounds out of 50000 docked compounds were selected using FlexX and Drugscore (BioSolvIT). The top 4000 docked structures were further evaluated and ranked according to Goldscore and Chemscore functions (CSCORE). A list of common 200 compounds was then selected among ranked top 700 compounds according to both scoring functions (FIG. 1B). […] The remaining 100 compounds were experimentally tested up to 30 μM against Akt1. The inhibitory activity was evaluated for the selected compounds by using Z'-LYTE™ kit assay provided by Invitrogen Corporation (19). […] Corning® 384-well low volume plates (20 μl) were used. The fluorescent-enzymatic assay has been performed following the protocol provided by Invitrogen Corporation, using a fluorescent plate reader (Victor2, Perkin-Elmer). […] C) Lineweaver-Burk Km and Km(app) evaluation for Akt1. Each measurement was performed in triplicate. […] The Ki and the Km(app) were calculated at fixed inhibitor concentrations, as reported in the text. All constant values were definitely evaluated by fitting the data to the Lineweaver-Burk plot; D) Akt1 inhibition assay using GSK-3 as a substrate. Comparison of compounds 1 and 2 (Table 1) with H89 at 10 μM. E) Dose response for compound 1. […]

Where [3] appears, read: Table 2, derivatives of Compound 1, read-out: IC50.
[4] abbreviates: FIG. 2 legend, read-out: IC50 value.

For the molecule `CC1=C(C#N)c2nc(N)c(C#N)c(C)c2C1=Cc1ccc(-c2cccc(C(=O)O)c2)o1` [Compound 5], the “inhibitory activity against Akt1 kinase (in words)” value at Akt1 [1] was “appreciable inhibition in the micromolar range; also recorded: limited inhibitory activity”. On Akt1 [1] (setting [3]), the concentration for half-maximal inhibition (IC50) came out at 60200 nM.

On to `CC1=C(C#N)c2nc(N)c(C#N)c(C)c2/C1=C/c1ccc(-c2ccc(C(=O)O)c(Cl)c2)o1` [Compound 1], for which the “IC50 values (in words)” value on Akt1 [1] is recorded as “low-micromolar range”. The same molecule displayed a Ki at Akt1 [1] of 1100 nM. The IC50 is 2300 nM and 2600 nM at Akt1 [1] (setting [4]); 2600 nM at Akt1 [1] (Table 1, read-out: IC50); 2600 nM at Akt1 [1] (setting [3]). On Akt1 [1] (IC50 curve, FIG. 2A), this molecule returned a Hill slope of 1.1. Further, the “inhibition of GSK-3 phosphorylation” value against Akt1 [2] was “low micromolar range”.

Regarding `CC1=C(C#N)c2nc(N)c(C#N)c(C)c2C1=Cc1ccc(-c2ccc(C(=O)O)cc2)o1` [Compound 4], the “inhibitory activity against Akt1 kinase (in words)” value on Akt1 [1] is given as “appreciable inhibition in the micromolar range; also recorded: limited inhibitory activity”.

With `O=C(O)c1cc(-c2ccc(C=C3C(=O)c4ccccc4C3=O)o2)ccc1O` [Compound 3], the Ki on Akt1 [1] worked out at 20800 nM. In addition, the concentration for half-maximal inhibition (IC50) at Akt1 [1] (setting [4]) was 25100 nM.

As usually defined, the IC50 is the concentration that gives 50% inhibition. As usually defined, the Ki is the dissociation constant of the complex between target and ligand, obtained from inhibition or displacement. Lower therefore signals higher affinity. The Hill slope is a measure of the steepness of the concentration-response curve.
